By IC50 is commonly meant the concentration that gives 50% inhibition. A low value points to higher potency.

These results are taken from US20240209011A1, “HETEROAROMATIC PHOSPHONIUM SALTS FOR TREATING CANCER” (FLORATEK PHARMA S.A., priority 2021, published 2024).

In this test the test system is OVXF 899. Put plainly: Cell viability assay (CellTiter-Blue/CellTiter-Glow). In kind it is cell-based. Particulars: ovarian carcinoma cell line OVXF 899; absolute IC50; 72 h. The method in brief:
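Tumour cells were plated at 4,000-20,000 cells/well (up to 60,000 for haematological lines) in RPMI 1640 or DMEM with 10% FCS, then exposed 24 h later to compounds for 72 h at 37 °C. Viability was read by CellTiter-Blue fluorescence or CellTiter-Glo luminescence; absolute IC50 taken at T/C=50%.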
For orientation: Resazurin is reduced to fluorescent resorufin, in cell work by metabolically active cells.

In turn, `CCNC(=O)Oc1ccc2c(=O)cc(-c3ccc(CCCC[P+](c4ccccc4)(c4ccccc4)c4ccccc4)cc3)oc2c1O.[Br-]` [SND126A, 4-[4-[7-(Ethylcarbamoyloxy)-8-hydroxy-4-oxo-chromen-2-yl]phenyl]butyltriphenylphosphonium bromide] showed an IC50 of 17.6 µM.
